Laboratory results taken from ChEMBL document CHEMBL4813971, “Development of novel benzofuran-based SLC-0111 analogs as selective cancer-associated carbonic anhydrase isoform IX inhibitors” (Eur J Med Chem, 2021).

Assays:
Carbonic anhydrase 9 [1] = target: T1, Carbonic anhydrase 9 (Homo sapiens, UniProt Q16790); test: Inhibition of human CA9 preincubated for 15 mins by phenol red dye based stopped flow CO2 hydration assay
Carbonic anhydrase 9 [2] = target: T1, Carbonic anhydrase 9; test: Inhibition of human CA9 by stopped- flow CO2 hydration assay
MDA-MB-231 = test: Antiproliferative activity against human MDA-MB-231 cells incubated for 2 days by MTT assay; settings: MDA-MB-231, 48 h
MCF7 = test: Antiproliferative activity against human MCF7 cells incubated for 2 days by MTT assay; settings: MCF7, 48 h
Carbonic anhydrase 1 = Carbonic anhydrase 1 (Homo sapiens, UniProt P00915); test: Inhibition of human CA1 by stopped- flow CO2 hydration assay
Sequence of Carbonic anhydrase 1 (P00915 whole entry): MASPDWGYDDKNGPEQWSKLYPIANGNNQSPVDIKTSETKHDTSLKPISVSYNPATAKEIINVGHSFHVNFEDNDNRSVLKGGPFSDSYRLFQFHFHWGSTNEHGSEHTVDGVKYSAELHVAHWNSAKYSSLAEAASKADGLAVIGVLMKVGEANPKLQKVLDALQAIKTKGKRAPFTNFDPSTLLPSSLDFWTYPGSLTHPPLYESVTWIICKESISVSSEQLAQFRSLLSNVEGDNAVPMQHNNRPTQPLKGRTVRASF

Ki (Carbonic anhydrase 9 [2]) [nM] | further results | Compound
– | Ki (Carbonic anhydrase 9 [1]): 27.7 nM | C/C(=N\Nc1ccc(S(N)(=O)=O)cc1)c1cc2cc(Br)ccc2o1
10.4 | – | Cc1c(NC(=O)Nc2ccc(S(N)(=O)=O)cc2)oc2ccccc12
– | Ki (Carbonic anhydrase 9 [1]): 10 nM | Cc1ccc(S(=O)(=O)C/C(=N\Nc2ccc(S(N)(=O)=O)cc2)c2cc3cc(Br)ccc3o2)cc1
68.2 | – | Cc1c(NC(=O)Nc2ccccc2S(N)(=O)=O)oc2ccccc12
25.3 | – | Cc1c(NC(=O)Nc2cccc(S(N)(=O)=O)c2)oc2ccccc12
8.4 | IC50 (MDA-MB-231): 6270 nM; IC50 (MCF7): 6450 nM | Cc1ccc(NC(=O)Nc2oc3ccccc3c2C)cc1S(N)(=O)=O
650 | – | Cc1c(NC(=O)Nc2ccc(S(=O)(=O)Nc3nccs3)cc2)oc2ccccc12
2300 | Ki (Carbonic anhydrase 1): > 100000 nM | Cc1noc(NS(=O)(=O)c2ccc(NC(=O)Nc3cc4cc(Br)ccc4o3)cc2)c1C
35.8 | – | NS(=O)(=O)c1ccccc1NC(=O)Nc1cc2cc(Br)ccc2o1
20.2 | – | NS(=O)(=O)c1cccc(NC(=O)Nc2cc3cc(Br)ccc3o2)c1
930 | Ki (Carbonic anhydrase 1): > 100000 nM | O=C(Nc1ccc(S(=O)(=O)Nc2nccs2)cc1)Nc1cc2cc(Br)ccc2o1
5.5 | IC50 (MDA-MB-231): 14200 nM; IC50 (MCF7): 13800 nM | Cc1ccc(NC(=O)Nc2cc3cc(Br)ccc3o2)cc1S(N)(=O)=O
12.6 | – | Cc1c(NC(=O)NNC(=O)c2ccc(S(N)(=O)=O)cc2)oc2ccccc12
7.6 | – | Cc1c(NC(=O)NCCc2ccc(S(N)(=O)=O)cc2)oc2ccccc12
34.5 | – | Cc1c(NC(=O)Oc2ccc(S(N)(=O)=O)cc2)oc2ccccc12
7.1 | – | NS(=O)(=O)c1ccc(NC(=O)Nc2cc3cc(Br)ccc3o2)cc1
22.8 | – | NS(=O)(=O)c1cc(S(N)(=O)=O)c(NC(=O)Nc2cc3cc(Br)ccc3o2)cc1Cl
560 | Ki (Carbonic anhydrase 1): > 100000 nM | Cc1noc(NS(=O)(=O)c2ccc(NC(=O)Nc3oc4ccccc4c3C)cc2)c1C
53.9 | – | Cc1c(NC(=O)Nc2cc(Cl)c(S(N)(=O)=O)cc2S(N)(=O)=O)oc2ccccc12
1.8 | – | NS(=O)(=O)c1ccc(C(=O)NNC(=O)Nc2cc3cc(Br)ccc3o2)cc1
